≈ marks a conversion by molar mass, not a printed value. Read-outs that look alike come from different tables or passages of the source.
Experiments:
B. cenocepacia K56-2 = format: cell-based, Burkholderia cenocepacia; conditions: Burkholderia cenocepacia, 18 h
B. lata BCC6 = format: cell-based, Burkholderia lata; conditions: Burkholderia lata, BCC6
B. contaminans MF16 = format: cell-based, Burkholderia contaminans; conditions: Burkholderia contaminans, MF16
[1] = tested on: B. contaminans FFH-2050MA; format: cell-based, Burkholderia contaminans; conditions: Burkholderia contaminans, FFH2050MA
B. dolosa CEP021 = format: cell-based, Burkholderia dolosa; conditions: Burkholderia dolosa, CEP021
B. multivorans ATCC17616 = format: cell-based, Burkholderia multivorans; conditions: Burkholderia multivorans, ATCC17616
B. cenocepacia 140485 = format: cell-based, Burkholderia cenocepacia; conditions: Burkholderia cenocepacia, 140485
B. ubonensis LMG 20358 = format: cell-based, Burkholderia ubonensis; conditions: Burkholderia ubonensis, LMG20358
B. contaminans FFH-4004 = format: cell-based, Burkholderia contaminans; conditions: Burkholderia contaminans, FFH4004
members of the Bcc = test: MIC, summary over Bcc panel; format: cell-based, Burkholderia cepacia complex
C. elegans DH26 = conditions: for Percent survival of C. elegans: 24 h
[2] = tested on: Galleria mellonella larvae; test: Galleria toxicity
[3] = tested on: Burkholderia cenocepacia K56-2; test: Time kill assays (exponential and stationary phase); conditions: time kill, 1×, 2×, 4× MIC (DOX 4× MIC), 6 h

C[C@H]1c2cccc(O)c2C(=O)C2=C(O)[C@]3(O)C(=O)C(C(N)=O)=C(O)[C@@H](N(C)C)[C@@H]3[C@@H](O)[C@@H]21 [DOX, doxycycline, reference compound]
MIC (B. cenocepacia K56-2): 4 µg/mL (≈ 9 µM) | MIC (B. lata BCC6): 4 µg/mL (≈ 9 µM) | MIC (B. contaminans MF16): 16 µg/mL (≈ 36 µM) | MIC [1]: 2 µg/mL (≈ 4.5 µM) | MIC (B. dolosa CEP021): 16 µg/mL (≈ 36 µM) | MIC (B. multivorans ATCC17616): 2 µg/mL (≈ 4.5 µM) | MIC (B. cenocepacia 140485): 1 µg/mL (≈ 2.25 µM) | MIC (B. ubonensis LMG 20358): 4 µg/mL (≈ 9 µM) | MIC (B. contaminans FFH-4004): 8 µg/mL (≈ 18 µM) | MIC (members of the Bcc; Burkholderia cepacia, read-out: MIC values against some isolates from the Bcc, lowest values, some isolates): 1 µg/mL (≈ 2.25 µM) | MIC values against some isolates from the Bcc (members of the Bcc; lowest values, some isolates): 2 µg/mL (≈ 4.5 µM) | Percent survival of C. elegans (C. elegans DH26; 4 μg/mL): 100% | Percent survival of C. elegans (C. elegans DH26; 8 μg/mL): 97.4% | Percent survival of C. elegans (C. elegans DH26; 16 μg/mL): 100% | Percent survival of C. elegans (C. elegans DH26; 32 μg/mL): 98.2% | Percent survival of C. elegans (C. elegans DH26; 64 μg/mL): 100% | Percent survival of C. elegans (C. elegans DH26; 128 μg/mL): 91.5% | Percent survival of C. elegans (C. elegans DH26; 256 μg/mL): 79.5% | Survival100/MIC Ratio (C. elegans DH26; highest concentration with 100 percent survival divided by the compound's MIC): 16 | Galleria Survival ([2]; 1.0 mg/kg, 24 h): 96.7% | Galleria Survival ([2]; 1.0 mg/kg, 48 h): 96.7% | Galleria Survival ([2]; 1.0 mg/kg, 72 h): 96.7% | Galleria Survival ([2]; 2.0 mg/kg, 24 h): 93.3% | Galleria Survival ([2]; 2.0 mg/kg, 48 h): 93.3% | Galleria Survival ([2]; 2.0 mg/kg, 72 h): 93.3% | Galleria Survival ([2]; 5.0 mg/kg, 24 h): 93.3% | Galleria Survival ([2]; 5.0 mg/kg, 48 h): 90.0% | Galleria Survival ([2]; 5.0 mg/kg, 72 h): 90.0% | Galleria Survival ([2]; 10.0 mg/kg, 24 h): 93.3% | Galleria Survival ([2]; 10.0 mg/kg, 48 h): 93.3% | Galleria Survival ([2]; 10.0 mg/kg, 72 h): 93.3% | killing of stationary (non-replicating) phase cells [3]: unable to kill cells
